Consider three molecules from publication PMC7855594 (Cell chemical biology, 2020).

The target of experiment [1] is T1, USP7 (Homo sapiens, UniProt Q93009). It is filed as biochemical.
Experiment [2] has as its target T1, USP7. Format: biochemical. This is another data set of the same source.
For experiment [3], the target named is T1, USP7. Description: purified enzyme biochemical assay. The settings on record: cited from earlier work.

By IC50 is commonly meant the concentration at which inhibition is half-maximal.

The structures appear in SMILES notation.

T1 sequence (Q93009 whole entry): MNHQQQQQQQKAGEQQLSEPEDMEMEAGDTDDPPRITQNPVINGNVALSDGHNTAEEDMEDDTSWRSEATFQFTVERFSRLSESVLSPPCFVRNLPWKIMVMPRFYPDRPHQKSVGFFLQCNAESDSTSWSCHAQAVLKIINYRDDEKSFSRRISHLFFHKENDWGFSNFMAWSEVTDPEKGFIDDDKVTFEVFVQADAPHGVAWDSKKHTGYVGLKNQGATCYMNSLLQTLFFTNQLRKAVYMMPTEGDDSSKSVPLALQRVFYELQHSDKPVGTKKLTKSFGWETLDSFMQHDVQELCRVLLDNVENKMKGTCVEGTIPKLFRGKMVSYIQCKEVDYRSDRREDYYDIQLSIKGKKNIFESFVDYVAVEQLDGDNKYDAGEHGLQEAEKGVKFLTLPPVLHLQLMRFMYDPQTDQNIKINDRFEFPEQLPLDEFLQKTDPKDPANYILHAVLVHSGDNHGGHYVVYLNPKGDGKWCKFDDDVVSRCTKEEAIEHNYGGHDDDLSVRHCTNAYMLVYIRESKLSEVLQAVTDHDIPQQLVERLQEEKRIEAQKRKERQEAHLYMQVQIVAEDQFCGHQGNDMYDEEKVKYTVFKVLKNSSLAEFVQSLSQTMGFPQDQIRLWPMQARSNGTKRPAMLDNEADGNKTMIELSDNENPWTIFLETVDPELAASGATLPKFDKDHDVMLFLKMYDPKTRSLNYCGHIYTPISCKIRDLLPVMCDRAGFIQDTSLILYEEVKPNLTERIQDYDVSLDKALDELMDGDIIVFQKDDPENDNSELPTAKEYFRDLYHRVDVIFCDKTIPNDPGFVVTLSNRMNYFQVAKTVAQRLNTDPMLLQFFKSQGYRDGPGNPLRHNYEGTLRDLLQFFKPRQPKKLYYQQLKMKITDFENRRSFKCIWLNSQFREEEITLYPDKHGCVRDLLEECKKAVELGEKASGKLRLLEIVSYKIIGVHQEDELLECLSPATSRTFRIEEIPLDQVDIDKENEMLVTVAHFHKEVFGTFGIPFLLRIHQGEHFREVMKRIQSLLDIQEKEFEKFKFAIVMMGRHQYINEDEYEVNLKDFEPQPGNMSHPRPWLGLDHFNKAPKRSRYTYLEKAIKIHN

Turning to `CN1CCN(CCC(=O)Nc2ccc3c(=O)n(CC4(O)CCN(C(=O)[C@@H](CCCNC(=O)c5ccc6c(Cl)c7c(nc6c5)CCCC7)Cc5ccccc5)CC4)cnc3c2)CC1` [XL177A], the “% inhibition at 1 μM” value at USP7 [1] was found to be 100.

Turning to `C[C@H](CC(=O)N1CCC(O)(Cn2cnc3cc(NC(=O)CCN4CCN(C)CC4)ccc3c2=O)CC1)c1ccccc1` [XL188], the “% inhibition at 10 μM” value on USP7 [2] is reported as 100.

On to `C[C@@H](CC(=O)N1CCC(O)(Cn2cnc3cc(NC(=O)CCN4CCN(C)CC4)ccc3c2=O)CC1)c1ccccc1` [XL203C], for which, on USP7 [3], the IC50 was 7 µM.
